Residues, ends and D or L forms follow the SMILES beside them. *: point of attachment. Butanoyl(4-pyren-1-yl) = O=C(CCCc1ccc2ccc3cccc4ccc1c2c34)*; Palmitoyl = CCCCCCCCCCCCCCCC(=O)*
Tests used:
[1] = test system: neural progenitor cells (NPCs); experiment: Immunocytochemistry of NPC differentiation (β-tubulin III neurons, GFAP astrocytes) in 3D scaffolds; assay type: cell-based, mouse
Description: (§1) Cell Culture and In Vitro Encapsulation in IKVAV-PA nano-networks. Neural progenitor cells (NPCs) were cultured as previously described (See, e.g., Zhu et al., J. Neurosci. Res. 59, 312 (2000)). Briefly, the cortices of E13 mouse embryos were dissected and plated on un-treated petri dishes in DMEM/F12 media supplemented with bFGF (10 ng/ml). After four days, mechanically and enzymatically dissociated NPCs and undissociated neurospheres (e.g., undissociated NPC aggregates) were plated onto appropriate substrates (e.g., encapsulated in IKVAV-peptide amphiphile (PA), EQS-PA, or alginate gels, or cultured on laminin, poly-D-lysine, or IKVAV peptide coated cover slips). In all cases this was taken as 0 days in vitro. […]
(§2) Immunocytochemistry. […] Cell imaging was done with a high resolution Cool Snap camera attached to a Nikon TE-2000 fluorescence microscope interfaced with a PC running MetaView imaging software, or an Axiocam camera attached to a Zeiss Axiovert 200 fluorescence microscope interfaced with a PC running AxioVision imaging software.
(§3) Cell Counts. Randomly selected fields of view were imaged for different experimental conditions and cells counted using ImageJ (Scion Corporation) morphometric analysis software. […]

[2] = test system: neural progenitor cells (NPCs); experiment: Cell body area and neurite length of neurons differentiated from NPCs; assay type: cell-based, mouse; conditions: after 1 day
Description: as §1, §2, §3

[3] = test system: neural progenitor cells (NPCs); experiment: NPC differentiation on two-dimensional coated substrates; assay type: cell-based, mouse; conditions: for differentiation into neurons on 2D substrate: cells plated for 1 day
Description: Two-dimensional cultures. For IKVAV peptide experiments, the same 12 mm glass coverslips used for the three-dimensional experiments were soaked in ethanol to encourage hydrophilicity, then spin-coated with 50 μL of a 1 mg/mL IKVAV peptide solution. For IKVAV-PA experiments, the coverslips were coated with PDL (e.g., to encourage adsorption) and subsequently with IKVAV-PA solution. In both cases, the cover slips were allowed to dry overnight and then washed three times with distilled water to remove weakly adherent material before the addition of cell suspension.
NPC differentiation on a two dimensional (2D) substrate coated with IKVAV-PA nanofibers was investigated.

[4] = test system: injured spinal cord; experiment: Stability of fluorescent peptide amphiphile gel in injured spinal cord; assay type: in vivo, mouse
Description: Mouse spinal cord injuries, amphiphile injections and animal care. All animal care and surgical interventions were undertaken in strict accordance with the Public Health Service Policy on Humane Care and Use of Laboratory Animals, Guide for the Care and Use of Laboratory Animals (Institute of Laboratory Animal Resources, National Research Council, 1996). The Institutional Animal Care and Use Committee approved of all operative procedures. Female, adult 129 SvJ mice (10 weeks old; Jackson Labs, USA) were anesthetized using avertin intraperitoneally. A laminectomy was performed and the spinal cord was compressed dorsoventrally at T10 by the extradural application of a modified Kerr-Lougheed aneurysm clip for 1 min (FEJOTA mouse clip, University Health Network, Canada). The skin was sutured using AUTOCLIP (9 mm, Becton Dickinson). Post-operatively, animals were kept under a heat-lamp to maintain body temperature. […]
Peptide amphiphile solution or vehicle was injected 24 hours after the spinal cord injury using borosilicate glass capillary micropipettes (Sutter Instruments) (OD: 100 μm). […] The micropipette was manually inserted to a depth of 750 μm measured from the dorsal surface of the cord and 2.5 μl of the diluted amphiphile solution or vehicle was injected at the rate of 2.5 μl/min. […]

[5] = test system: spinal cord; conditions: rat, in vivo
Description: Spinal Cord Injection Procedure. Rats were anesthetized using 45 mg/kg Pentobarbital (NEMBUTAL). A laminectomy was performed to expose spinal segment T13 and a stereotaxic micromanipulator (Kopf Instruments) with a Hamilton syringe attached to a 32 gauge needle was used to inject 6 μl at 333 nl/sec of isoosmotic glucose (vehicle) or peptide amphiphile into the spinal cord at T10 at a depth of 1.5 mm. The needle was kept inside the site of injection for 2 minutes after each injection in order to allow the IKVAV-PA to gel without disturbance.

Compound: laminin
- GFAP expression relative to cells cultured on nanofiber networks ([1]; coated substrates): significantly greater
- neurite development [2]: had not developed neurites
- differentiation into neurons on 2D substrate [3]: did not lead to the significant neuron differentiation

Compound: CC[C@H](C)[C@H](NC(=O)[C@H](CCC(=O)O)NC(=O)[C@H](C)NC(=O)[C@H](C)NC(=O)[C@H](C)NC(=O)[C@H](CC(C)C)NC(=O)[C@H](CO)NC(=O)[C@H](CC(C)C)NC(=O)[C@H](CO)NC(=O)CCCc1ccc2ccc3cccc4ccc1c2c34)C(=O)N[C@@H](CCCCN)C(=O)N[C@H](C(=O)N[C@@H](C)C(=O)N[C@H](C(=O)O)C(C)C)C(C)C [PA2] ({Butanoyl(4-pyren-1-yl)}-SLSLAAAEIKVAV-OH)
- presence of gel in injured cord ([4]; 5 weeks after injection, 1% solution in isotonic glucose): remnants could still be seen
- lifetime of the nanofiber scaffold in vivo ([4]; mouse, in vivo): on the order of weeks

Compound: CCCCCCCCCCCCCCCC(=O)N[C@@H](C)C(=O)N[C@@H](C)C(=O)N[C@@H](C)C(=O)N[C@@H](C)C(=O)NCC(=O)NCC(=O)NCC(=O)N[C@@H](CCC(=O)O)C(=O)N[C@H](C(=O)N[C@@H](CCCCN)C(=O)N[C@H](C(=O)N[C@@H](C)C(=O)N[C@H](C(=O)O)C(C)C)C(C)C)[C@@H](C)CC [IKVAV-PA] (Palmitoyl-AAAAGGGEIKVAV-OH)
- toxic effects after spinal cord injection [5]: no toxic effects

Compound: isolucine-lysine-valine-alanine-valine [IKVAV peptide]
- neuron differentiation on titration into EQS-PA scaffolds ([1]; increasing amounts of soluble peptide, 1 day): failed to induce the extent of neuron differentiation
- expression of β-tubulin III and/or GFAP on 2D coated substrate [3]: nearly nonquantifiable amounts
- differentiation into neurons on 2D substrate [3]: did not lead to the significant neuron differentiation
